In patent publication US7892312B2, “Nitrification inhibitor and soil improver and fertilizer containing the same” (priority 2005, dated 2011):

System: Nitrosomonas europaea IF014298
Experiment: in-vitro nitrification bacteria biological luminescence test
Format: cell-based
Conditions: not given
Method: Observation was conducted using in-vitro nitrification bacteria. Explanation is first made of preparation of suspension of the nitrification bacteria used for observation.
The nitrification bacteria (Nitrosomonas europaea IF014298. See Non-Patent Reference 4.) with a bacteria-origin luciferase gene (luxAB) introduced therein was aerobically cultivated in P culture media containing 25 mg/1000 cm^3 of kanamycin at 30° C. for 7-9 days, and after washing, suspended in fresh P culture media, thereby nitrification bacteria suspension was prepared. This nitrification bacteria suspension was kept in the dark place for 30 minutes or longer before experiment.
The composition of P culture media consists of 2.5 g of (NH4)2SO4, 0.7 g of KH2PO4, 13.5 g of Na2HPO4, 0.5 g of NaHCO3, 100 mg of MgSO4-7H2O, 5 mg of CaCl2-2H2O, 1 mg of Fe-EDTA, and 1000 cm^3 of water, and its pH was 8.0.
Nitrification function was evaluated by, after mixing in-vitro the aqueous solution of nitrification bacteria suspension consisting of 0.25 cm^3 of said nitrification bacteria suspension and 0.2 cm^3 of water and 0.01 cm^3 of the sample solution of each Example and Comparative Example, measuring biological luminescence accompanying nitrification reaction during cultivation at 15° C. for 30 minutes using a luminometer (Turner Designs, TD20/20). […] Therefore, the luminescence of the case where a sample solution of each Example and Comparative Example is added to the aqueous solution of nitrification bacteria suspension divided by the luminescence of the case of aqueous bacteria suspension without addition of a sample solution of each Example and Comparative Example was defined as nitrification-inhibitory ratio.
The concentration of sample solutions of each Example and Comparative Example in this case was 20 ppm.
Measurement was conducted as mentioned above with the concentration of sample solutions of each Example and Comparative Example in the aqueous nitrification bacteria suspension varying 0-20 ppm.

With `CC/C=C\C/C=C\C/C=C\CCCCCCCC(=O)O` [α-linolenic acid] as the compound, how does the “80% inhibition concentration (concentration at which nitrification-inhibitory ratio was 80%)” value read?
The value was about 12 ppm.

With `CCCCC/C=C\C/C=C\C/C=C\CCCCC(=O)O` [γ-linolenic acid] as the compound, how does the “80% inhibition concentration (concentration at which nitrification-inhibitory ratio was 80%)” value read?
Its value is “about 16 ppm”.

How did the “80% inhibition concentration (concentration at which nitrification-inhibitory ratio was 80%)” value turn out when `CCCCC/C=C\C/C=C\CCCCCCCC(=O)O` [linoleic acid] was run?
Its value is “about 16 ppm”.

Which “80% inhibition concentration (concentration at which nitrification-inhibitory ratio was 80%)” value does the source give for `CCCCC/C=C\C/C=C\CCCCCCCC(=O)OC` [methyl linoleate] here?
The value was about 8 ppm.

For `N#CN=C(N)N` [dicyandiamide, reference compound], which “80% inhibition concentration (concentration at which nitrification-inhibitory ratio was 80%)” value is on record?
The value was 185 ppm.

Which “80% inhibition concentration (concentration at which nitrification-inhibitory ratio was 80%)” value does the source give for `Clc1cccc(C(Cl)(Cl)Cl)n1` [nitrapyrin, 2-chloro-6-Trichloromethylpyridine, reference compound] here?
Its value is 4 ppm.

Same assay, conditions: sample concentration 8 ppm

`CC/C=C\C/C=C\C/C=C\CCCCCCCC(=O)O` [α-linolenic acid] was tested. Which nitrification-inhibitory ratio did it give?
The nitrification-inhibitory ratio was 40%.

How did the nitrification-inhibitory ratio turn out when `CCCCC/C=C\C/C=C\C/C=C\CCCCC(=O)O` [γ-linolenic acid] was run?
The nitrification-inhibitory ratio was 30%.

How did the nitrification-inhibitory ratio turn out when `CCCCC/C=C\C/C=C\CCCCCCCC(=O)O` [linoleic acid] was run?
The nitrification-inhibitory ratio was 40%.

For `CCCCC/C=C\C/C=C\CCCCCCCC(=O)OC` [methyl linoleate], which nitrification-inhibitory ratio is on record?
Its nitrification-inhibitory ratio is 80%.

Same assay, conditions: sample concentration 12 ppm

Which nitrification-inhibitory ratio does the source give for `CC/C=C\C/C=C\C/C=C\CCCCCCCC(=O)O` [α-linolenic acid] here?
Its nitrification-inhibitory ratio is 80%.

`CCCCC/C=C\C/C=C\C/C=C\CCCCC(=O)O` [γ-linolenic acid] was tested. Which nitrification-inhibitory ratio did it give?
The nitrification-inhibitory ratio was 72%.

For `CCCCC/C=C\C/C=C\CCCCCCCC(=O)O` [linoleic acid], which nitrification-inhibitory ratio is on record?
The nitrification-inhibitory ratio was 65%.

With `CCCCC/C=C\C/C=C\CCCCCCCC(=O)OC` [methyl linoleate] as the compound, how does the nitrification-inhibitory ratio read?
The nitrification-inhibitory ratio was 90%.

Same assay, conditions: sample concentration 16 ppm

`CC/C=C\C/C=C\C/C=C\CCCCCCCC(=O)O` [α-linolenic acid] was tested. Which nitrification-inhibitory ratio did it give?
The nitrification-inhibitory ratio was 90%.

`CCCCC/C=C\C/C=C\C/C=C\CCCCC(=O)O` [γ-linolenic acid] was tested. Which nitrification-inhibitory ratio did it give?
Its nitrification-inhibitory ratio is 90%.

`CCCCC/C=C\C/C=C\CCCCCCCC(=O)O` [linoleic acid] was tested. Which nitrification-inhibitory ratio did it give?
Its nitrification-inhibitory ratio is 90%.

For `CCCCC/C=C\C/C=C\CCCCCCCC(=O)OC` [methyl linoleate], which nitrification-inhibitory ratio is on record?
Its nitrification-inhibitory ratio is 92%.

Same assay, conditions: sample concentration 20 ppm

Which “inhibition of nitrification reaction (in words)” value (“inhibition … (in words)” for short) does the source give for `CCCCCCCC/C=C\CCCCCCCC(=O)OC` [methyl oleate, reference compound] here?
The value was “not inhibited”.

How did the “inhibition … (in words)” value turn out when `CCCCC/C=C\C/C=C\C/C=C\C/C=C\CCCC(=O)O` [arachidonic acid, reference compound] was run?
The value was “not inhibited”.

With `CCCCCCCCCCCCCCCCCC(=O)O` [stearic acid, reference compound] as the compound, how does the “inhibition … (in words)” value read?
Its value is “not inhibited”.

For `CC/C=C\C/C=C\C/C=C\CCCCCCCC(=O)OC` [methyl α-linolenate, reference compound], which “inhibition … (in words)” value is on record?
Its value is “not inhibited”.

How did the “inhibition … (in words)” value turn out when `CCCCCCCC/C=C\CCCCCCCC(=O)O` [oleic acid, reference compound] was run?
Its value is “not inhibited”.

How did the “inhibition … (in words)” value turn out when `CCCCC/C=C\C/C=C\CCCCCCCC(=O)OCC` [ethyl linoleate, reference compound] was run?
The value was “not inhibited”.

Same assay, conditions: sample concentration 20 ppm; 15° C., 30 minutes

For `CC/C=C\C/C=C\C/C=C\CCCCCCCC(=O)O` [α-linolenic acid], which nitrification-inhibitory ratio is on record?
Its nitrification-inhibitory ratio is 95%.

`CCCCC/C=C\C/C=C\C/C=C\CCCCC(=O)O` [γ-linolenic acid] was tested. Which nitrification-inhibitory ratio did it give?
The nitrification-inhibitory ratio was 95%.

For `CCCCC/C=C\C/C=C\CCCCCCCC(=O)O` [linoleic acid], which nitrification-inhibitory ratio is on record?
The nitrification-inhibitory ratio was 95%.

Which nitrification-inhibitory ratio does the source give for `CCCCC/C=C\C/C=C\CCCCCCCC(=O)OC` [methyl linoleate] here?
The nitrification-inhibitory ratio was 95%.
